“Also recorded” adds a separate entry of the source. Square brackets hold non-standard residues; d marks the D form. Peptide text beside a SMILES is read from it. * marks the point of attachment. BrAc = O=C(CBr)*
Columns and labels:
[1] = test system: Nalm-6 cells (CALLA+ human leukemic cell line); experiment: Growth of Nalm-6 cells (viable cell counts daily); assay type: cell-based; settings: for growth of Nalm-6 cells in conditioned media: 50-50 mixture of fresh media and media from a five-day culture, FIG. 5; for cell growth of Nalm-6: nanomolar to micromolar concentrations, FIG. 1 and 3; for growth of Nalm-6 cells: bolus or daily addition, FIG. 4
Protocol: FIG. 1--Effect of NEP Inhibitors on the Growth of Nalm-6, A2/3, and J558 Cell Lines. The two NEP inhibitors phosphoramidon (1 μM) and carboxyphenylethyl-Phe-β-Ala (20 μM) were added to cells plated in quadruplicate at a density of 100,000 cells/ml in 24 well microtiter plates. The number of viable cells was determined daily. FIG. 3--Correlation of Cell Growth with NEP Activity. Nalm-6 cells were treated with 10 nM phosphoramidon added either as a bolus (circles) or daily (triangles). Cells were initially plated at 200,000 cells/ml. Control cells without added inhibitor are shown as squares. Aliquots were taken daily for determining cell density. To the remainder of the sample was added glutaryl-[…] and NEP activity determined. […] Cells counts were conducted daily. FIG. 5--The Effect of NEP Inhibitors on Nalm-6 Cells Grown in Fresh or Conditioned Media. Nalm-6 cells were grown in fresh media or a 50--50 mixture of fresh media and media taken from a five-day culture. The pH of the conditioned media was adjusted to that of the fresh media. Cell counts were performed daily. The efficacy of endopeptidase inhibitors may be assessed by determining cell numbers and the percent of viable cells (e.g., assessed by trypan blue exclusion) as a function of time in culture in the presence and absence of the endopeptidase inhibitors. In addition the level of neutral endopeptidase activity will be measured and correlated with these parameters. Since the enzyme is on the cell surface its activity can be measured by simply adding substrate to the cell culture. The kinetics of inactivation of purified enzyme can also be assessed. A graphical analysis of the inactivation constant (kobs) versus the inhibitor concentration can be plotted. If the inhibitor binds to the active site of the enzyme this graph should be hyperbolic. The data can then be analyzed in a double reciprocal plot of 1/kobs versus 1/[Inhibitor]. This should yield a straight line from which the dissociation constant for the inhibitor (Ki) and the maximal rate of inactivation k(inact) can be obtained. […] This type of analysis has previously been conducted to characterize the reaction of both phenylglyoxal and N-bromoacetyl-D-Leu-Gly with the enzyme. […] Nalm-6 and Nall-1 are leukemic cell lines generally representative of CALLA+ lymphoblastic leukemias. […] The number of viable cells was determined daily. In FIG. 2, the NEP inhibitors phosphoramidon (PA;10 nM) and carboxyphenylethyl-Phe-β-Ala (10 μM) were added to Nall-1 and, in a separate experiment, to SMS-SB cells plated at a density of 200,000 cells/ml. The inhibitors were added either once on Day 0 as a bolus (closed circle and square) or daily (open circle or triangle). The number of viable cells was determined daily. The inhibition of cell growth by these NEP specific inhibitors appeared somewhat transient and correlated with the recovery of NEP activity. […] Control cells without added inhibitor are shown as squares. Cells were initially plated at a density of 200,000 cells/ml. Aliquots were taken daily for determining cell density. To the remainder of the sample was added glutaryl-[…] and NEP activity was determined.

[2] = test system: Nall-1 cells (CALLA+ human leukemic cell line); experiment: Growth of Nall-1 cells (viable cell counts daily); assay type: cell-based; settings: nanomolar to micromolar concentrations; FIG. 2
Protocol: FIG. 2--Effect of NEP Inhibitors on the Growth of Nall-1 and SMS-SB Cell Lines. The NEP inhibitors phosphoramidon (10 nM) and carboxyphenylethyl-Phe-β-Ala(10 μM) were added to cells plated at a density of 200,000 cells/ml. The inhibitors were added either once on Day 0 as a bolus (closed circle and square) or daily (open circle or triangle). The number of viable cells was determined daily. […] Nalm-6 and Nall-1 are leukemic cell lines generally representative of CALLA+ lymphoblastic leukemias. […] The number of viable cells was determined daily. In FIG. 2, the NEP inhibitors phosphoramidon (PA;10 nM) and carboxyphenylethyl-Phe-β-Ala (10 μM) were added to Nall-1 and, in a separate experiment, to SMS-SB cells plated at a density of 200,000 cells/ml. The inhibitors were added either once on Day 0 as a bolus (closed circle and square) or daily (open circle or triangle). The number of viable cells was determined daily.

[3] = biological target: T1, NEP (CALLA) on intact Nalm-6 cells (Homo sapiens, UniProt P08473); experiment: NEP activity of intact cells (glutaryl-Ala-Ala-Phe-MNA substrate); assay type: cell-based
T1 construct: NEP is a normal constituent of Nalm-6 cells; endogenous in cells; host or cells: Nalm-6 (human CALLA+ leukemic cell line)
Protocol: FIG. 3--Correlation of Cell Growth with NEP Activity. Nalm-6 cells were treated with 10 nM phosphoramidon added either as a bolus (circles) or daily (triangles). Cells were initially plated at 200,000 cells/ml. Control cells without added inhibitor are shown as squares. Aliquots were taken daily for determining cell density. To the remainder of the sample was added glutaryl-[…] and NEP activity determined. The efficacy of endopeptidase inhibitors may be assessed by determining cell numbers and the percent of viable cells (e.g., assessed by trypan blue exclusion) as a function of time in culture in the presence and absence of the endopeptidase inhibitors. In addition the level of neutral endopeptidase activity will be measured and correlated with these parameters. Since the enzyme is on the cell surface its activity can be measured by simply adding substrate to the cell culture. The kinetics of inactivation of purified enzyme can also be assessed. A graphical analysis of the inactivation constant (kobs) versus the inhibitor concentration can be plotted. […] The data can then be analyzed in a double reciprocal plot of 1/kobs versus 1/[Inhibitor]. […] To the remainder of the sample was added glutaryl-[…] and NEP activity was determined. […] The NEP activity of intact cells in the presence of the inhibitors has been measured during the course of experiments similar to those shown in FIG. 1. […]

[4] = test system: L3 myoblast cell line; experiment: L3 myoblast cell line, formation of myotubules; assay type: cell-based
[5] = biological target: neutral endopeptidase 24.11 (NEP); experiment: Competitive inhibition of neutral endopeptidase (NEP); assay type: biochemical; settings: read-out: Ki (competitive inhibitor)
From the text: (§1) The efficacy of endopeptidase inhibitors may be assessed by determining cell numbers and the percent of viable cells (e.g., assessed by trypan blue exclusion) as a function of time in culture in the presence and absence of the endopeptidase inhibitors. In addition the level of neutral endopeptidase activity will be measured and correlated with these parameters. Since the enzyme is on the cell surface its activity can be measured by simply adding substrate to the cell culture. The kinetics of inactivation of purified enzyme can also be assessed. A graphical analysis of the inactivation constant (kobs) versus the inhibitor concentration can be plotted. If the inhibitor binds to the active site of the enzyme this graph should be hyperbolic. The data can then be analyzed in a double reciprocal plot of 1/kobs versus 1/[Inhibitor]. This should yield a straight line from which the dissociation constant for the inhibitor (Ki) and the maximal rate of inactivation k(inact) can be obtained. […] This type of analysis has previously been conducted to characterize the reaction of both phenylglyoxal and N-bromoacetyl-D-Leu-Gly with the enzyme.
NEP: glutaryl-Ala-Ala-Phe-MNA →glutaryl-Ala-Ala + Phe-MNA Aminopeptidase: Phe-MNA →Phe + MNA MNA =4-methoxy-2-naphthylamine

[6] = test system: neutral endopeptidase 24.11 (NEP); experiment: Affinity labelling / irreversible inactivation of NEP; assay type: biochemical
From the text: as §1

[7] = test system: SMS-SB cells (CALLA- human leukemic cell line); experiment: Growth of SMS-SB cells (viable cell counts daily); assay type: cell-based; settings: 10 μM, bolus or daily addition; FIG. 4
Protocol: FIG. 2--Effect of NEP Inhibitors on the Growth of Nall-1 and SMS-SB Cell Lines. The NEP inhibitors phosphoramidon (10 nM) and carboxyphenylethyl-Phe-β-Ala(10 μM) were added to cells plated at a density of 200,000 cells/ml. The inhibitors were added either once on Day 0 as a bolus (closed circle and square) or daily (open circle or triangle). The number of viable cells was determined daily. […] Cells counts were conducted daily. […] Nalm-6 and Nall-1 are leukemic cell lines generally representative of CALLA+ lymphoblastic leukemias. […] The number of viable cells was determined daily. In FIG. 2, the NEP inhibitors phosphoramidon (PA;10 nM) and carboxyphenylethyl-Phe-β-Ala (10 μM) were added to Nall-1 and, in a separate experiment, to SMS-SB cells plated at a density of 200,000 cells/ml. The inhibitors were added either once on Day 0 as a bolus (closed circle and square) or daily (open circle or triangle). The number of viable cells was determined daily.

T1 sequence (P08473 whole entry): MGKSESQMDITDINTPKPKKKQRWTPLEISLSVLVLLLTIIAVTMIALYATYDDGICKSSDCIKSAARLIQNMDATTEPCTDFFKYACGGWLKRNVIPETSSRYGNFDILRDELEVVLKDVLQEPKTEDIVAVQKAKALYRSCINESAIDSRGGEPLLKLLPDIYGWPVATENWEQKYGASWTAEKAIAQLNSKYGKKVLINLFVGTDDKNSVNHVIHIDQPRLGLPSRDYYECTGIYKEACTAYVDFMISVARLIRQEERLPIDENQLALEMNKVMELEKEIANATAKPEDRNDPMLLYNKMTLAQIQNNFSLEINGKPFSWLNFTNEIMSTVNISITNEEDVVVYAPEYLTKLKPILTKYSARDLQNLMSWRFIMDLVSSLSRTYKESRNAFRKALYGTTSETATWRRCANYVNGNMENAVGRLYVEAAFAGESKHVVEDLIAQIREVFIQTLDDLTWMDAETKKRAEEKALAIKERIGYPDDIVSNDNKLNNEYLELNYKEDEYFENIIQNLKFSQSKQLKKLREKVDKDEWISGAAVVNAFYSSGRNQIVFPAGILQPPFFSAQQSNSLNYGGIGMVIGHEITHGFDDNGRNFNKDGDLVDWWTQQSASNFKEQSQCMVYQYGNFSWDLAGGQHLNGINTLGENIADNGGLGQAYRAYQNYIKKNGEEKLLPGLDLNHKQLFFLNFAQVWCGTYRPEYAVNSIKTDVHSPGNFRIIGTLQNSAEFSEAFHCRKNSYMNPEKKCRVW

Compound | growth of Nalm-6 cells in conditioned media [1] | cell growth of Nalm-6 [1] | cell growth of Nall-1 [2] | enzyme (NEP) activity in conditioned vs fresh media [3] | irreversible inhibition / affinity labelling of NEP [6] | growth of Nalm-6 cells ([1]; 10 μM) | growth of CALLA- SMS leukemic cell line [7] | other results
O=C(O)CCNC(=O)[C@H](Cc1ccccc1)NC(Cc1ccccc1)C(=O)O (stereo partly drawn) [carboxyphenylethyl-Phe-β-Ala] | the cells grow | cell growth was inhibited; also recorded: inhibit cell growth | cell growth was inhibited; also recorded: inhibit cell growth | just as effectively inhibited in the conditioned media as in the fresh media |  |  |  | 
CC(C)C[C@H](NP(=O)(O)O[C@@H]1O[C@@H](C)[C@H](O)[C@@H](O)[C@H]1O)C(=O)N[C@@H](Cc1c[nH]c2ccccc12)C(=O)O [phosphoramidon] | the cells grow | cell growth was inhibited; also recorded: inhibit cell growth | cell growth was inhibited; also recorded: inhibit cell growth | just as effectively inhibited in the conditioned media as in the fresh media |  |  |  | duration of inhibition of cell growth at higher inhibitor concentration ([1]; 10 μM): growth is inhibited during the entire course of the experiment; growth of Nalm-6 cells in dialyzed conditioned media ([1]; conditioned media dialyzed against fresh media, cut-off 14,000): cell growth was once again inhibited; effect on L3 myoblast cell line (formation of myotubules) [4]: unaffected
CC(C)C[C@@H](NC(=O)CBr)C(=O)NCC(=O)O [BADLG, N-bromoacetyl-D-Leu-Gly] (BrAc-[dL]-Gly-OH) |  |  |  |  | irreversible inhibitor |  |  | Ki [5]: 5 mM; mol incorporated per mol of enzyme ([6]; irreversible inhibition): 1 mol per mol of enzyme
O=C(O)CNC(=O)C(CS)Cc1ccccc1 (stereo not shown) [thiorphan, HS--CH2 --CH(CH2 --.phi.)--CO--Gly] |  |  |  |  |  | inhibits the growth | neither thiorphan nor captopril affect the growth | 
C[C@H](NC(=O)[C@@H](Cc1ccccc1)NC(=O)CBr)C(=O)O [bromoacetyl-D-Phe-Ala] |  |  |  |  | not an affinity label of NEP |  |  | 
C[C@H](CS)C(=O)N1CCC[C@H]1C(=O)O [captopril, HS--CH2 --CH(CH3)--CO--Pro] |  |  |  |  |  | without effect | neither thiorphan nor captopril affect the growth | 

Reference: patent US5200426A, “Inhibitors of neutral endopeptidase/CALLA as chemotherapeutic agents” (Board of Regents, The University of Texas, priority 1990, dated 1993)
